In US12545653B2, “Compound as PPAR agonist and application thereof” (USA Elixiria Biotech Inc., priority 2019, dated 2026):
Values joined by “and” are separate entries in the source; they are usually repeats but may differ in a detail not shown here. Identical values can stand only once.

These compounds were tested on APP/PS1 transgenic mice (assay: Alzheimer's disease model, eight-arm radial water maze and brain gene expression). Settings: 10 mg/kg body weight/day, 30 days, RT-PCR.
Assay type: in vivo, mouse

| SMILES | expression level of Bcl-xl gene in cerebral cortex and hippocampus compared with disease control group | expression level of GluN2B gene in cerebral cortex and hippocampus compared with disease control group | expression level of Gng11 gene in cerebral cortex and hippocampus compared with disease control group | expression level of MnSOD gene in cerebral cortex and hippocampus compared with disease control group | expression level of Prx-2 gene in cerebral cortex and hippocampus compared with disease control group | expression level of klotho gene in cerebral cortex and hippocampus compared with disease control group |
| --- | --- | --- | --- | --- | --- | --- |
| CCc1ccc(CC/C=C/c2ccc3c(c2)C(=O)CC3)cc1 [ELB00824, (E)-6-(4-(4-ethylphenyl)but-1-en-1-yl)-2,3-dihydro-1H-inden-1-one] | doubled | doubled | tripled | tripled or quadrupled | tripled or quadrupled | 9 folds |

Same assay, conditions: 30 days in food, 10 mg/kg body weight/day (donepezil 3 mg/kg body weight/day), 5 on the first day

| SMILES | number of errors in water maze on the third day |
| --- | --- |
| CCc1ccc(CC/C=C/c2ccc3c(c2)C(=O)CC3)cc1 [ELB00824, (E)-6-(4-(4-ethylphenyl)but-1-en-1-yl)-2,3-dihydro-1H-inden-1-one] | ~1 |
| COc1ccc(CC/C=C/c2ccc3c(c2)C(=O)CC3)cc1 [ELB001116, (E)-6-(4-(4-methoxyphenyl)but-1-en-1-yl)-2,3-dihydro-1H-inden-1-one] | comparable to that of ELB00824 |
| CCc1ccc(CC/C=C/c2ccc3c(c2)OCCC3=O)cc1 [ELB001045, (E)-7-(4-(4-ethylphenyl)but-1-en-1-yl)chroman-4-one] | comparable to that of ELB00824 |
| CCc1ccc(OC/C=C/c2ccc3c(c2)C(=O)CC3)cc1 [ELB001115, (E)-6-(3-(4-ethylphenoxy)prop-1-en-1-yl)-2,3-dihydro-1H-inden-1-one] | comparable to that of ELB00824 |
| CCc1ccc(CC/C=C/c2ccc3c(c2)C(=O)COC3)cc1 [ELB001046, (E)-6-(4-(4-ethylphenyl)but-1-en-1-yl)isochroman-4-one] | comparable to that of ELB00824 |
| CCc1ccc(CC/C=C/c2ccc3c(c2)C(=O)CC3)nc1 [ELB001125, (E)-6-(4-(5-ethylpyridin-2-yl)but-1-en-1-yl)-2,3-dihydro-1H-inden-1-one] | comparable to that of ELB00824 |

Same assay, conditions: 30 days in food, 10 mg/kg body weight/day (donepezil 3 mg/kg body weight/day), eight-arm water maze

| SMILES | reduction in the number of errors (reference memory), third day compared with first day |
| --- | --- |
| CCc1ccc(CC/C=C/c2ccc3c(c2)C(=O)CC3)cc1 [ELB00824, (E)-6-(4-(4-ethylphenyl)but-1-en-1-yl)-2,3-dihydro-1H-inden-1-one] | significant |

The compounds below were run against T1, PPARγ (Homo sapiens, UniProt P37231) (assay: In vitro transcriptional activity of PPARγ gene (PPRE-luciferase reporter, HEK 293 T cells)). Settings: HEK 293 T cells transfected with PPARγ expression and PPRE-luc plasmids, 21 hours; read-out: EC50 of PPARγ gene activation.
T1 construct: expressed in transfected cells; host or cells: HEK 293 T cells
T1 sequence (P37231 1-505): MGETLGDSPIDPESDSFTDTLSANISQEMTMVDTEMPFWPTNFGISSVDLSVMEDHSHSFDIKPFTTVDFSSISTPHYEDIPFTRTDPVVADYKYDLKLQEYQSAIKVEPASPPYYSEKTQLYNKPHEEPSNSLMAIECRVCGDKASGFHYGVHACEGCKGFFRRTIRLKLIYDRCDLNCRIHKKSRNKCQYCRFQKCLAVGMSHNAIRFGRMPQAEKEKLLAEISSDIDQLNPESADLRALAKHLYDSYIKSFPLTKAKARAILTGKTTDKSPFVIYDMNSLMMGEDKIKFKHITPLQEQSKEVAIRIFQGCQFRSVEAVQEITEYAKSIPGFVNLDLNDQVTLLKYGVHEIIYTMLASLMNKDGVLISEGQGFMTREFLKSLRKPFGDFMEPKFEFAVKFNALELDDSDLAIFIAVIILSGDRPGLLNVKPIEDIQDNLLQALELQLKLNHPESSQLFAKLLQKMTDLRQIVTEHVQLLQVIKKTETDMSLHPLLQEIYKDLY
Assay type: cell-based

| EC50 | SMILES |
| --- | --- |
| < 6.4 µM | COc1ccc(CC/C=C/c2ccc3c(c2)C(=O)CC3)cc1 [ELB001116, (E)-6-(4-(4-methoxyphenyl)but-1-en-1-yl)-2,3-dihydro-1H-inden-1-one] |
| < 6.4 µM and 3.5 µM | CCc1ccc(CC/C=C/c2ccc3c(c2)OCCC3=O)cc1 [ELB001045, (E)-7-(4-(4-ethylphenyl)but-1-en-1-yl)chroman-4-one] |
| < 6.4 µM and 4.8 µM | CCc1ccc(OC/C=C/c2ccc3c(c2)C(=O)CC3)cc1 [ELB001115, (E)-6-(3-(4-ethylphenoxy)prop-1-en-1-yl)-2,3-dihydro-1H-inden-1-one] |
| < 6.4 µM | CCc1ccc(CC/C=C/c2ccc3c(c2)C(=O)COC3)cc1 [ELB001046, (E)-6-(4-(4-ethylphenyl)but-1-en-1-yl)isochroman-4-one] |
| < 6.4 µM | CCc1ccc(CC/C=C/c2ccc3c(c2)C(=O)CC3)nc1 [ELB001125, (E)-6-(4-(5-ethylpyridin-2-yl)but-1-en-1-yl)-2,3-dihydro-1H-inden-1-one] |

| SMILES | EC50 |
| --- | --- |
| CCc1ccc(CC/C=C/c2ccc3c(c2)C(=O)CC3)cc1 [ELB00824, (E)-6-(4-(4-ethylphenyl)but-1-en-1-yl)-2,3-dihydro-1H-inden-1-one] | < 6.4 µM and 4.7 µM |

Each compound was assayed on db−/db− mice (assay: Diabetic peripheral neuropathy model, Von Frey threshold, sciatic nerve ROS and MDA). Settings: in food 10 mg/kg body weight/day (pregabalin 30 mg/kg body weight/day), compared with healthy control group.
Assay type: in vivo, mouse
Protocol: Male 5-6 week-old male db^−/db^− mice were used in the experiment, and their normoglycemic heterozygous littermates were used as controls. db^−/db^− is a commonly used type 2 diabetes animal model. The compounds was dissolved in DMSO and mixed into food pellets. The animals were given ad libitum access to the pellets, beginning from 8 to 9 weeks of age for 10 weeks. […] The method for detecting mice hindlimb hypersensitivity is performed using Von Frey filaments. […] The difference is significant with P<0.05. The increase of mitochondrial reactive oxygen species (ROS) in the sciatic nerve of mice, which in turn leads to the increase of intracellular malondialdehyde (MDA), is the etiology of this type of neuropathic pain. The efficacy of compound to treat the root cause of the disease was evaluated by measurement of the levels of MDA and mitochondrial ROS from the sciatic nerves.

| SMILES | level of MDA in the sciatic nerve after 10 week treatment | level of mitochondrial ROS in the sciatic nerve after 10 week treatment |
| --- | --- | --- |
| CCc1ccc(CC/C=C/c2ccc3c(c2)C(=O)CC3)cc1 [ELB00824, (E)-6-(4-(4-ethylphenyl)but-1-en-1-yl)-2,3-dihydro-1H-inden-1-one] | no difference | no difference |
| COc1ccc(CC/C=C/c2ccc3c(c2)C(=O)CC3)cc1 [ELB001116, (E)-6-(4-(4-methoxyphenyl)but-1-en-1-yl)-2,3-dihydro-1H-inden-1-one] | no difference | no difference |
| CCc1ccc(CC/C=C/c2ccc3c(c2)OCCC3=O)cc1 [ELB001045, (E)-7-(4-(4-ethylphenyl)but-1-en-1-yl)chroman-4-one] | reduced | reduced |
| CCc1ccc(OC/C=C/c2ccc3c(c2)C(=O)CC3)cc1 [ELB001115, (E)-6-(3-(4-ethylphenoxy)prop-1-en-1-yl)-2,3-dihydro-1H-inden-1-one] | reduced | reduced |
| CCc1ccc(CC/C=C/c2ccc3c(c2)C(=O)COC3)cc1 [ELB001046, (E)-6-(4-(4-ethylphenyl)but-1-en-1-yl)isochroman-4-one] | reduced | reduced |
| CCc1ccc(CC/C=C/c2ccc3c(c2)C(=O)CC3)nc1 [ELB001125, (E)-6-(4-(5-ethylpyridin-2-yl)but-1-en-1-yl)-2,3-dihydro-1H-inden-1-one] | reduced | reduced |

Same assay, conditions: in food 10 mg/kg body weight/day (pregabalin 30 mg/kg body weight/day), compared with normal control group

| SMILES | mechanical pain threshold after 10 week treatment |
| --- | --- |
| CCc1ccc(CC/C=C/c2ccc3c(c2)C(=O)CC3)cc1 [ELB00824, (E)-6-(4-(4-ethylphenyl)but-1-en-1-yl)-2,3-dihydro-1H-inden-1-one] | no difference |
| COc1ccc(CC/C=C/c2ccc3c(c2)C(=O)CC3)cc1 [ELB001116, (E)-6-(4-(4-methoxyphenyl)but-1-en-1-yl)-2,3-dihydro-1H-inden-1-one] | no difference |
| CCc1ccc(CC/C=C/c2ccc3c(c2)OCCC3=O)cc1 [ELB001045, (E)-7-(4-(4-ethylphenyl)but-1-en-1-yl)chroman-4-one] | significantly improved |
| CCc1ccc(OC/C=C/c2ccc3c(c2)C(=O)CC3)cc1 [ELB001115, (E)-6-(3-(4-ethylphenoxy)prop-1-en-1-yl)-2,3-dihydro-1H-inden-1-one] | significantly improved |
| CCc1ccc(CC/C=C/c2ccc3c(c2)C(=O)COC3)cc1 [ELB001046, (E)-6-(4-(4-ethylphenyl)but-1-en-1-yl)isochroman-4-one] | significantly improved |
| CCc1ccc(CC/C=C/c2ccc3c(c2)C(=O)CC3)nc1 [ELB001125, (E)-6-(4-(5-ethylpyridin-2-yl)but-1-en-1-yl)-2,3-dihydro-1H-inden-1-one] | significantly improved |
